# Assays:
# Assay type in all cases: biochemical
# MYC = test: In vitro transcription-translation (IVTT) assay, MYC reporter; conditions: IVTT assay, HeLa S3 lysate, MYC reporter, normalized sfGFP/mCherry ratio; half-log dilutions 30 μM-0.1 μM, 2 hrs at 30° C.
# Outline: (§1)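 Reporter: mCherry, P2A, then 3×FLAG-target peptide-sfGFP fusion, IRES-initiated; HeLa S3 lysate IVTT; cpd dilutions 30 μM−0.1 μM half-log in 100% DMSO (dilution-plate conc); DNA added last; 2 h, 30° C; PBS quench.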
# CCND1 = test: In vitro transcription-translation (IVTT) assay, CCND1 reporter; conditions: IVTT, HeLa S3 lysate, 2 hrs at 30° C.
# Outline: as §1
# MCL-1 = test: In vitro transcription-translation (IVTT) assay, MCL-1 reporter; conditions: IVTT, HeLa S3 lysate, 2 hrs at 30° C.; read-out: MCL1 IC50
# Outline: as §1
# CCNTB1 = test: In vitro transcription-translation (IVTT) assay, CCNTB1 reporter; conditions: HeLa S3 lysate, 2 hrs at 30° C.
# Outline: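 IC50 fitted from the sfGFP/mCherry fluorescence ratio, normalized to no-drug control after no-DNA background subtraction. Reactions ran 2 h at 30° C in HeLa S3 cell lysate with reporter plasmid DNA and half-log compound titrations (30 μM−0.1 μM, in DMSO).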
Compound,IC50 (MYC) [µM],IC50 (CCND1) [µM],IC50 (MCL-1) [µM],IC50 (CCNTB1) [µM]
"COc1ccc(C[C@H]2NC[C@H](O)[C@H]2OC(=O)NCCC[C@H]2CCNC2)cc1 [V188340, (2R,3S,4S)-4-hydroxy-2-[(4-methoxyphenyl)methyl]pyrrolidin-3-yl N-{3-[(3S)-pyrrolidin-3-yl]propyl}carbamate]",< 10,10 to 20,< 10,< 10
"COc1ccc(C[C@H]2NC[C@H](O)[C@H]2OC(=O)NCC=C(C)C)cc1 [V190411, (2R,3S,4S)-4-hydroxy-2-[(4-methoxyphenyl)methyl]pyrrolidin-3-yl N-(3-methylbut-2-en-1-yl)carbamate]",10 to 20,10 to 20,10 to 20,< 10
"COc1ccc(C[C@H]2NC[C@H](O)[C@H]2OC(=O)NCc2ccc(C3CCNC3)cc2)cc1 (stereo partly drawn) [V188354, (2R,3S,4S)-4-hydroxy-2-[(4-methoxyphenyl)methyl]pyrrolidin-3-yl N-{[4-(pyrrolidin-3-yl)phenyl]methyl}carbamate]",< 10,< 10,< 10,< 10
"COc1ccc(C[C@H]2NC[C@H](O)[C@H]2OC(=O)NCc2ccc(NS(C)(=O)=O)cc2)cc1 [V191955, (2R,3S,4S)-4-hydroxy-2-[(4-methoxyphenyl)methyl]pyrrolidin-3-yl N-[(4-methanesulfonamidophenyl)methyl]carbamate]",< 10,< 10,< 10,< 10
"COc1ccc(C[C@H]2NC[C@H](O)[C@H]2OC(=O)NCC#Cc2ccccc2)cc1 [V188315, (2R,3S,4S)-4-hydroxy-2-[(4-methoxyphenyl)methyl]pyrrolidin-3-yl N-(3-phenylprop-2-yn-1-yl)carbamate]",10 to 20,20 to 30,< 10,< 10
"COc1ccc(C[C@H]2NC[C@H](O)[C@H]2OC(=O)NCCc2c(C)noc2C)cc1 [V190414, (2R,3S,4S)-4-hydroxy-2-[(4-methoxyphenyl)methyl]pyrrolidin-3-yl N-[2-(3,5-dimethyl-1,2-oxazol-4-yl)ethyl]carbamate]",> 30,> 30,> 30,20 to 30
"COc1ccc(C[C@H]2NC[C@H](O)[C@H]2OC(=O)NC2CC3(CCNC3)C2)cc1 (stereo partly drawn) [V190538, (2R,3S,4S)-4-hydroxy-2-[(4-methoxyphenyl)methyl]pyrrolidin-3-yl N-{6-azaspiro[3.4]octan-2-yl}carbamate]",> 30,> 30,> 30,> 30
"O=C(NCc1cccc(F)c1)O[C@@H]1[C@@H](O)CN[C@@H]1Cc1ccc(OC(F)(F)F)cc1 [V190509, (2R,3S,4S)-4-hydroxy-2-(4-(trifluoromethoxy)benzyl)pyrrolidin-3-yl (3-fluorobenzyl)carbamate]",> 30,> 30,> 30,20 to 30
"COc1ccc(C[C@H]2NC[C@H](O)[C@H]2OC(=O)NCCc2cnoc2)cc1 [V190449, (2R,3S,4S)-4-hydroxy-2-[(4-methoxyphenyl)methyl]pyrrolidin-3-yl N-[2-(1,2-oxazol-4-yl)ethyl]carbamate]",< 10,< 10,< 10,< 10
"COc1ccc(C[C@H]2NC[C@H](O)[C@H]2OC(=O)NCc2cc(F)cc(F)c2)cc1 [V188380, (2R,3S,4S)-4-hydroxy-2-[(4-methoxyphenyl)methyl]pyrrolidin-3-yl N-[(3,5-difluorophenyl)methyl]carbamate]",< 10,< 10,< 10,< 10
"O=C(NCc1cccc(F)c1)O[C@@H]1[C@@H](O)CN[C@@H]1Cc1ccc(-c2ncco2)cc1 [V190514, (2R,3S,4S)-4-hydroxy-2-{[4-(1,3-oxazol-2-yl)phenyl]methyl}pyrrolidin-3-yl N-[(3-fluorophenyl)methyl]carbamate]",< 10,< 10,< 10,< 10
"O=C(NCC[C@@H]1CCCN1)O[C@@H]1[C@@H](O)CN[C@@H]1Cc1ccc(-c2ccc(C(F)(F)F)cc2)cc1 [V191963, (2R,3S,4S)-4-hydroxy-2-{[4′-(trifluoromethyl)-[1,1′-biphenyl]-4-yl]methyl}pyrrolidin-3-yl N-{2-[(2S)-pyrrolidin-2-yl]ethyl}carbamate]",> 30,> 30,20 to 30,20 to 30
"COc1ccc(C[C@H]2NC[C@H](O)[C@H]2OC(=O)NCc2cnsc2)cc1 [V188384, (2R,3S,4S)-4-hydroxy-2-[(4-methoxyphenyl)methyl]pyrrolidin-3-yl N-(1,2-thiazol-4-ylmethyl)carbamate]",< 10,< 10,< 10,< 10
"COc1ccc(C[C@H]2NC[C@H](O)[C@H]2OC(=O)NCC[C@@H]2CCN2)cc1 [V191920, (2R,3S,4S)-4-hydroxy-2-[(4-methoxyphenyl)methyl]pyrrolidin-3-yl N-{2-[(2S)-azetidin-2-yl]ethyl}carbamate]",< 10,< 10,< 10,< 10
"O=C(NCc1ccccc1)O[C@@H]1[C@@H](O)CN[C@@H]1Cc1ccc(-c2c[nH]nn2)cc1 [V188331, (2R,3S,4S)-4-hydroxy-2-{[4-(1H−1,2,3-triazol-4-yl)phenyl]methyl}pyrrolidin-3-yl N-benzylcarbamate]",< 10,< 10,< 10,< 10
"O=C(NCc1ccccc1)O[C@@H]1[C@@H](O)CN[C@@H]1Cc1ccc(C2CC2)cc1 [V188329, (2R,3S,4S)-2-[(4-cyclopropylphenyl)methyl]-4-hydroxypyrrolidin-3-yl N-benzylcarbamate]",< 10,< 10,< 10,< 10
"COc1ccc(C[C@H]2NC[C@H](O)[C@H]2OC(=O)NCc2ccc(C3CC3)cc2)cc1 [V188321, (2R,3S,4S)-4-hydroxy-2-[(4-methoxyphenyl)methyl]pyrrolidin-3-yl N-[(4-cyclopropylphenyl)methyl]carbamate]",> 30,> 30,10 to 20,10 to 20
"COc1ccc(C[C@H]2NC[C@H](O)[C@H]2OC(=O)NCc2ccccc2C#N)cc1 [V191911, (2R,3S,4S)-4-hydroxy-2-[(4-methoxyphenyl)methyl]pyrrolidin-3-yl N-[(2-cyanophenyl)methyl]carbamate]",< 10,10 to 20,< 10,< 10
"COc1ccc(C[C@H]2NC[C@H](O)[C@H]2OC(=O)NCC2(F)CC2)cc1 [V188381, (2R,3S,4S)-4-hydroxy-2-[(4-methoxyphenyl)methyl]pyrrolidin-3-yl N-[(1-fluorocyclopropyl)methyl]carbamate]",< 10,10 to 20,< 10,< 10
"O=C(NCC1CC1)O[C@@H]1[C@@H](O)CN[C@@H]1Cc1ccc(-c2c[nH]nn2)cc1 [V188327, (2R,3S,4S)-4-hydroxy-2-{[4-(1H−1,2,3-triazol-4-yl)phenyl]methyl}pyrrolidin-3-yl N-(cyclopropylmethyl)carbamate]",< 10,< 10,< 10,< 10
"O=C(NCc1cccc(F)c1)O[C@@H]1[C@@H](O)CN[C@@H]1Cc1ccc(-c2cncs2)cc1 [V190546, (2R,3S,4S)-4-hydroxy-2-{[4-(1,3-thiazol-5-yl)phenyl]methyl}pyrrolidin-3-yl N-[(3-fluorophenyl)methyl]carbamate]",< 10,< 10,< 10,< 10
"O=C(NCc1cccc(F)c1)O[C@@H]1[C@@H](O)CN[C@@H]1Cc1ccc(C2CC2)cc1 [V190518, (2R,3S,4S)-2-[(4-cyclopropylphenyl)methyl]-4-hydroxypyrrolidin-3-yl N-[(3-fluorophenyl)methyl]carbamate]",10 to 20,20 to 30,10 to 20,< 10
"COc1ccc(C[C@H]2NC[C@H](O)[C@H]2OC(=O)NCC[C@@H]2CCCN2)cc1 [V188341, (2R,3S,4S)-4-hydroxy-2-[(4-methoxyphenyl)methyl]pyrrolidin-3-yl N-{2-[(2S)-pyrrolidin-2-yl]ethyl}carbamate]",< 10,< 10,< 10,< 10
"COc1ccc(C[C@H]2NC[C@H](O)[C@H]2OC(=O)NCc2cccc(Cl)c2)cc1 [V191904, (2R,3S,4S)-4-hydroxy-2-[(4-methoxyphenyl)methyl]pyrrolidin-3-yl N-[(3-chlorophenyl)methyl]carbamate]",< 10,< 10,< 10,< 10
"COc1ccc(C[C@H]2NC[C@H](O)[C@H]2OC(=O)NCCC(C)(C)O)cc1 [V190413, (2R,3S,4S)-4-hydroxy-2-[(4-methoxyphenyl)methyl]pyrrolidin-3-yl N-(3-hydroxy-3-methylbutyl)carbamate]",10 to 20,20 to 30,10 to 20,< 10
"Cn1cc(-c2ccc(C[C@H]3NC[C@H](O)[C@H]3OC(=O)NCc3ccccc3)cc2)nn1 [V188392, (2R,3S,4S)-4-hydroxy-2-{[4-(1-methyl-1,2,3-triazol-4-yl)phenyl]methyl}pyrrolidin-3-yl N-benzylcarbamate]",< 10,< 10,< 10,< 10
